Series [1] relates to thromboxane A2 challenged PAH-minipig. The series can be described thus: Haemodynamics in the anesthetized thromboxane challenged minipig, intratracheal dry powder (PAP, BP). Type of series: in vivo, Göttingen Minipigs. Here is the method:
Healthy Göttingen Minipigs® Ellegaard (Ellegaard, Denmark) of both sexes and having a weight of 2-6 kg were used. The animals were sedated by i.m. administration of about 25 mg/kg ketamine and about 10 mg/kg azaperone. Anaesthesia was initiated by i.v. administration of about 2 mg/kg ketamine and about 0.3 mg/kg midazolam. Maintenance of anaesthesia was by i.v. administration of about 7.5-30 mg/kg/h ketamine and about 1-4 mg/kg/h midazolam (rate of infusion 1-4 ml/kg/h) and about 150 μg/kg/h pancuronium bromide (for example Pancuronium-Actavis). After intubation, the animals were ventilated by the ventilator at a constant respiratory volume (10-12 ml/kg, 35 breaths/min; Avea®, Viasys Healthcare, USA, or Engström Carestation, GE Healthcare, Freiburg, Germany) such that an end-tidal CO2 concentration of about 5% was achieved. Ventilation was performed with room air, enriched with about 40% oxygen (normoxia). For the measurement of the haemodynamic parameters such as pulmonary arterial pressure (PAP), blood pressure (BP) and heart rate (HR), catheters were inserted into the carotid artery to measure the blood pressure, and a Swan-Ganz® catheter was introduced in a flow-directed manner via the jugular vein into the pulmonary artery. The haemodynamic signals were recorded and evaluated by means of pressure transducers (Combitransducer, B. Braun, Melsungen, Germany)/amplifiers and Ponemah® as data acquisition software.
As reference pure Lactose vehicle was applied in the beginning of each experiment.

Series [2] can be described thus: Filter experiments for deposited lung dose in the PAH minipig model and prediction of human dose. Type of series: in vivo. The method, then: The anesthetized thromboxane A2 challenged PAH-minipig model (see experimental part E-1) is considered to be the most relevant and sensitive model for the prediction of the human minimal effective and effective doses (MED, ED). To determine effective LDs, experiments were repeated with the difference that absorbing filters were attached at the end of the tubes to determine the deposited lung dose. […] Assuming a minimal effective ND of 3 μg/kg (5% reduction in PAP) the minimal effective deposited LD is considered as 0.15 μg/kg.
The nominal doses of 3, 10, 30 and 100 μg/kg of the minipig model were multiplied by the filter deposition factor of 5% resulting in 0.15, 0.5, 1.5 and 5 μg/kg lung deposited doses in the minipig. These values were multiplied by 60 kg to achieve the lung dose in humans. Thus, the FPD reflecting the PAP reduction for a 60 kg human are calculated to be 9, 30, 90 and 300 μg.
Thus, via a direct up-scaling from minipig, the predictive MED (5% PAP reduction) for a human based on a 60 kg body weight is calculated to be 9 μg LDD, not considering protein binding within the respiratory tract. As a surrogate for unbound concentrations, which are the likely active concentrations in the lung, we considered respective differences in fractions unbound in plasma of minipig and human. […]

Series [3] in a line: Storage stability of pseudopolymorphic forms (XRPD). The class given is physicochemical. The following applies: for Result (form after storage): monohydrate II.

The values below come from patent US12202805B2, “Process for preparing (5S)-{[2-(4-carboxyphenyl)ethyl] |2-(2-{|3-chloro-4'-(trifluoromethyl)biphenyl-4-yl]methoxy}phenyl)ethyl]aminol-5,6,7,8-tetrahydroquinoline-2-carboxylic acid and its crystalline forms for use as pharmaceutically active compound” (Bayer Aktiengesellschaft, priority 2021, dated 2025).

In turn, `O=C(O)c1ccc(CCN(CCc2ccccc2OCc2ccc(-c3ccc(C(F)(F)F)cc3)cc2Cl)[C@H]2CCCc3nc(C(=O)O)ccc32)cc1` [comparative example 11, (5S)-5-{[2-(4-carboxyphenyl)ethyl][2-(2-{[3-chloro-4′-(trifluoromethyl)[biphenyl]-4-yl]methoxy}phenyl)ethyl]amino}-5,6,7,8-tetrahydroquinoline-2-carboxylic acid] yielded an MED in series [1] (dry powder i.t., lower doses not applicable) not above 7.5 µg/kg. Besides, the “minimal effective lung deposited dose for a human patient of 60 kg body weight” value in series [2] (with or without effect of different protein binding) was 9 to 41 µg.
On to `O=C(O)c1ccc(CCN(CCc2ccccc2OCc2ccc(-c3ccc(C(F)(F)F)cc3)cc2Cl)[C@H]2CCCc3nc(C(=O)O)ccc32)cc1` [example 2, (5S)—{[2-(4-Carboxyphenyl)ethyl][2-(2-{[3-chloro-4′-(trifluoromethyl)biphenyl-4-yl]methoxy}phenyl)-ethyl]amino}-5,6,7,8-tetrahydroquinoline-2-carboxylic acid as Monohydrate II], for which, in series [1] (375 μg/kg i.t., within the last hour of the observation interval), the systemic blood pressure entry is recorded as “slightly affected”. Further, in series [1] (micronized hydrates, 1.5 mg/4 kg (=375 μg/kg) i.t.), the “efficacy with regard to PAP reduction as well as systemic BP reduction” value was “comparable efficacy”. Further, the “BP, % changes vs. prevalues” in series [1] (time 80 min, 375 μg/kg i.t.) is on record as 100.0%; in series [1] (time 130 min, 375 μg/kg i.t.), 97.0%; in series [1] (time 140 min, 375 μg/kg i.t.), 97.0%; in series [1] (time 200 min, 375 μg/kg i.t.), 97.0%. In addition, in series [2] (plasma), the “ratio of fraction unbound minipig/human” value is reported as 4.55. The “Result (form after storage)” value in series [3] (brown glass closed with paper filter disc, 40° C., 75% relative humidity) is “monohydrate I”; in series [3] (brown glass snap on closure, 25° C., 60% relative humidity, one, three and six months), “monohydrate II”; in series [3] (polyethylene, 25° C., 60% relative humidity) it was “monohydrate I”; in series [3] (polyethylene, 40° C., 75% relative humidity), “monohydrate I”.
Turning to `O=C(O)c1ccc(CCN(CCc2ccccc2OCc2ccc(-c3ccc(C(F)(F)F)cc3)cc2Cl)[C@H]2CCCc3nc(C(=O)O)ccc32)cc1` [example 4, (5S)—{[2-(4-Carboxyphenyl)ethyl][2-(2-{[3-chloro-4′-(trifluoromethyl)biphenyl-4-yl]methoxy}phenyl)-ethyl]amino}-5,6,7,8-tetrahydroquinoline-2-carboxylic acid as Monohydrate I], in series [3] (under the storage conditions of Table 15), the storage stability result is “stable”.
